Results from patent publication US4434170A, “Nor-tropane derivatives, and their application in therapeutics” (Delalande S.A., priority 1980, dated 1984).

What was measured:
Stair case test (rat) = type: in vivo; settings: po, sedative effect
[1] = system: apomorphinic straightenings; test: Antagonism to apomorphinic straightenings (mice); type: in vivo; settings: Mus musculus, ip, read-out: Antagonism to apomorphinic straightenings (mice) ED 50
Excerpt: (§1) I. C. Niemegeers and A. H. M. Jageneau in Arzneim-Forsch. (1960), 10, 1003.

Acute toxicity (mice) = settings: mouse, in vivo, ip, read-out: Toxicity (mice) LD 50
Method: The acute toxicity of the compounds of the invention was also tested intraperitoneally on mice.

[2] = system: apomorphine induced stereotypies; test: Antagonism to the apomorphine induced stereotypies (rat); type: in vivo; settings: po
Excerpt: as §1

gastric evacuation = test: Gastric evacuation test (rat); type: in vivo
Method: The compounds of formula (I) were administered orally simultaneously with 20 steel balls to wakeful rats starved for 20 hours.

[3] = system: vomiting induced by apomorphine; test: Antiemetic activity (dogs), vomiting induced by apomorphine; type: in vivo; settings: one hour before apomorphine 0.1 mg/kg subcutaneous

Row | Compound | ED50 [1] [mg/kg] | LD50 (Acute toxicity (mice)) [mg/kg] | further results
1 | COc1c(N)cc(Br)cc1C(=O)N[C@@H]1C[C@H]2CC[C@@H](C1)N2Cc1ccccc1 [compound 106] | 0.053 | 160 | ED50 (Stair case test (rat)): 8 mg/kg; ED50 [2]: 1.6 mg/kg
2 | COc1cccc(C(=O)N[C@@H]2C[C@H]3CC[C@@H](C2)N3Cc2ccc(Cl)cc2)c1OC [compound 112] | 0.029 | 220 | 
3 | COc1cccc(C(=O)N[C@@H]2C[C@H]3CC[C@@H](C2)N3Cc2cccc(F)c2)c1OC [compound 113] | 0.016 | 140 | 
4 | CCOc1cccc(C(=O)N[C@@H]2C[C@H]3CC[C@@H](C2)N3Cc2ccccc2)c1OCC [compound 115] | 0.038 | 53 | ED50 (Stair case test (rat)): 1.3 mg/kg; ED50 [2]: 0.22 mg/kg
5 | COc1cccc(C(=O)N[C@@H]2C[C@H]3CC[C@@H](C2)N3Cc2cccc(C)c2)c1OC [compound 118] | 0.016 | 90 | 
6 | COc1cccc(C(=O)N[C@@H]2C[C@H]3CC[C@@H](C2)N3Cc2ccc(C)cc2)c1OC [compound 120] | 0.032 | 100 | 
7 | COc1cc(N)c(Br)cc1C(=O)N[C@@H]1C[C@H]2CC[C@@H](C1)N2Cc1ccccc1Cl [compound 121] | 0.024 | 250 | 
8 | CCOc1cc(N)c(Br)cc1C(=O)N[C@@H]1C[C@H]2CC[C@@H](C1)N2Cc1ccc(Cl)cc1 [compound 123] | 0.041 | > 400 | ED50 (Stair case test (rat)): 1.7 mg/kg; ED50 [2]: 0.2 mg/kg
9 | CCOc1cc(N)c(Br)cc1C(=O)N[C@@H]1C[C@H]2CC[C@@H](C1)N2Cc1cccc(Cl)c1 [compound 126] | 0.054 | > 400 | 
10 | COc1cc(N)c(Cl)cc1C(=O)N[C@@H]1C[C@H]2CC[C@@H](C1)N2Cc1cccc(F)c1 [compound 127] | 0.007 | 200 | 
11 | COc1cccc(C(=O)N[C@@H]2C[C@H]3CC[C@@H](C2)N3Cc2ccc(Br)cc2)c1OC [compound 129] | 0.008 | 180 | 
12 | COc1cc(N)c(Br)cc1C(=O)N[C@@H]1C[C@H]2CC[C@@H](C1)N2Cc1ccccc1F [compound 131] | 0.013 | 250 | 
13 | COc1cc(N)c(Br)cc1C(=O)N[C@@H]1C[C@H]2CC[C@@H](C1)N2Cc1ccoc1 [compound 132] | 0.12 | 200 | Gastric evacuation: % animals whose stomach contains no ball after 90 minutes (gastric evacuation; 0.6 mg/kg/po): 25%; Gastric evacuation: % animals whose stomach contains no ball after 90 minutes (gastric evacuation; 1.3 mg/kg/po): 50%; Gastric evacuation: % animals whose stomach contains no ball after 90 minutes (gastric evacuation; 5 mg/kg/po): 75%; Gastric evacuation: % animals whose stomach contains no ball after 90 minutes (gastric evacuation; 10 mg/kg/po): 100%; Antiemetic activity: % inhibition of vomiting induced by apomorphine ([3]; 0.01 mg/kg/po): 100%
14 | COc1cc(OC)c(OC)c(C(=O)N[C@@H]2C[C@H]3CC[C@@H](C2)N3Cc2ccccc2)c1 [compound 135] | 0.01 | 70 | 
15 | CCOc1c(OC)cccc1C(=O)N[C@@H]1C[C@H]2CC[C@@H](C1)N2Cc1ccccc1 [compound 139] | 0.01 | 76 | ED50 (Stair case test (rat)): 0.3 mg/kg; ED50 [2]: 0.06 mg/kg
16 | CCOc1cccc(C(=O)N[C@@H]2C[C@H]3CC[C@@H](C2)N3Cc2ccccc2)c1OC [compound 140] | 0.019 | 70 | 
17 | CCOc1c(OC)cc(OC)cc1C(=O)N[C@@H]1C[C@H]2CC[C@@H](C1)N2Cc1ccccc1 [compound 141] | 0.035 | 115 | 
18 | COc1cc([N+](=O)[O-])cc(C(=O)N[C@@H]2C[C@H]3CC[C@@H](C2)N3Cc2ccccc2)c1OC [compound 142] | 0.012 | 87.5 | 
19 | CCOc1c(OC)cccc1C(=O)N[C@@H]1C[C@H]2CCC[C@@H](C1)N2Cc1ccccc1 [compound 143] | 0.025 | 110 | ED50 (Stair case test (rat)): 1.6 mg/kg; ED50 [2]: 0.26 mg/kg
20 | CCOc1c(OC)cccc1C(=O)N[C@@H]1C[C@H]2CC[C@@H](C1)N2Cc1ccc(Cl)c(Cl)c1 [compound 145] | 0.3 | > 400 | 
21 | COc1cc(Br)cc(C(=O)N[C@@H]2C[C@H]3CC[C@@H](C2)N3Cc2ccccc2)c1OC [compound 147] | 0.042 | 165 | Gastric evacuation: % animals whose stomach contains no ball after 90 minutes (gastric evacuation; 0.3 mg/kg/po): 25%; Gastric evacuation: % animals whose stomach contains no ball after 90 minutes (gastric evacuation; 0.6 mg/kg/po): 63%; Gastric evacuation: % animals whose stomach contains no ball after 90 minutes (gastric evacuation; 10 mg/kg/po): 90%; Antiemetic activity: % inhibition of vomiting induced by apomorphine ([3]; 0.1 mg/kg/po): 100%
22 | COc1cccc(C(=O)N[C@@H]2C[C@H]3CCC[C@@H](C2)N3Cc2ccccc2)c1OC [compound 148] | 0.008 | 100 | 
23 | COc1cccc(C(=O)N[C@@H]2C[C@H]3CC[C@@H](C2)N3Cc2ccc(F)cc2)c1OC [compound 155] | 0.005 | 140 | 
24 | COc1cc(SC)cc(C(=O)N[C@@H]2C[C@H]3CC[C@@H](C2)N3Cc2ccccc2)c1OC [compound 168] | 0.28 | 120 | 
25 | COc1cc(N)c(Cl)cc1C(=O)N[C@@H]1C[C@H]2CC[C@@H](C1)N2Cc1cccc(C)c1 [compound 169] | 0.034 | 70 | ED50 (Stair case test (rat)): 3.5 mg/kg; ED50 [2]: 0.46 mg/kg
26 | COc1cc(C(C)=O)cc(C(=O)N[C@@H]2C[C@H]3CC[C@@H](C2)N3Cc2ccccc2)c1OC [compound 171] | 0.029 | 115 | 
27 | COc1cccc(C(=O)N[C@@H]2C[C@H]3CC[C@@H](C2)N3Cc2cccc(Cl)c2)c1OC [compound 173] | 0.013 | 160 | 
28 | CCSc1cc(OC)c(OC)c(C(=O)N[C@@H]2C[C@H]3CC[C@@H](C2)N3Cc2ccccc2)c1 [compound 174] | 0.034 | 95 | 
29 | COc1cccc(C(=O)N[C@@H]2C[C@H]3CC[C@@H](C2)N3Cc2ccc(C#N)cc2)c1OC [compound 180] | 0.01 | 275 | 
